Experimental data published in US20090263470A1, “Vaccine Compositions Comprising Virosomes and a Saponin Adjuvant” (priority 2004, published 2009).
Like-named read-outs stand apart in the source and are kept apart here.

Key:
[1] = system: red blood cells; conditions: OD at 540 nm
[2] = QS21 injected parenterally as a free molecule; cited from earlier work
[3] = system: red blood cells; assay: Lytic activity of QS21 alone versus QS21 in the Inflexal V formulation against red blood cells, OD at 540 nm; format: cell-based; conditions: equivalent of 2.5 μg QS21 in 900 μl PBS pH 7.4 + 100 μl red blood cells, 30 minutes at RT
Protocol: 500 μl Inflexal V® vaccine, has been adjuvanted by the addition of 50 μg QS21. The resulting composition of this mixture is: +/−117 μg of Lecithin, 45 μg HA, 50 μg QS21 in 525 μl. The lytic activity of QS21 in this formulation has been compared to the lytic activity of QS21 alone.
Practically, a volume of the formulation “Inflexal V+QS21” containing the equivalent of 2.5 μg of QS21 is added to PBS pH 7.4 to reach a final volume of 900 μl. In parallel, 2.5 μg QS21 is taken and also diluted to 900 μl with PBS.
100 μl of red blood cells (10× diluted) are added to those 2 samples as described above. Samples are let for 30 minutes at RT. After centrifugation at 2000 rpm, the OD of the supernatant is red at 540 nm.

QS21
OD ([1]; 1 μg QS21): 0.217 | OD ([1]; 1.5 μg QS21): 0.631 | OD ([1]; 2.5 μg QS21): 0.891 | injection site observation [2]: necrosis | OD [3]: 1.63
